# Laboratory results taken from ChEMBL document CHEMBL3352103, “Investigations of amide bond variation and biaryl modification in analogues of α7 nAChR agonist SEN12333” (Eur J Med Chem, 2014).
# How the values were obtained:
# [1] = molecular target: T1, Neuronal acetylcholine receptor subunit alpha-7 (Rattus norvegicus, UniProt Q05941); experiment: Displacement of [3H]EB from rat nAChR alpha7 expressed in HEK293 cell membranes by liquid scintillation counting
# [2] = molecular target: T1, Neuronal acetylcholine receptor subunit alpha-7; experiment: Agonist activity at rat nAChR alpha7 expressed in GH4C1 cells by fluorescent calcium assay; type: cell-based, GH4-C1
# [3] = molecular target: Neuronal acetylcholine receptor; alpha3/beta4 (Rattus norvegicus, UniProt P04757+P12392); experiment: Displacement of [3H]EB from rat nAChR alpha3beta4 expressed in HEK293 cell membranes by liquid scintillation counting
# Neuronal acetylcholine receptor; alpha3/beta4, sequence (P04757 whole entry): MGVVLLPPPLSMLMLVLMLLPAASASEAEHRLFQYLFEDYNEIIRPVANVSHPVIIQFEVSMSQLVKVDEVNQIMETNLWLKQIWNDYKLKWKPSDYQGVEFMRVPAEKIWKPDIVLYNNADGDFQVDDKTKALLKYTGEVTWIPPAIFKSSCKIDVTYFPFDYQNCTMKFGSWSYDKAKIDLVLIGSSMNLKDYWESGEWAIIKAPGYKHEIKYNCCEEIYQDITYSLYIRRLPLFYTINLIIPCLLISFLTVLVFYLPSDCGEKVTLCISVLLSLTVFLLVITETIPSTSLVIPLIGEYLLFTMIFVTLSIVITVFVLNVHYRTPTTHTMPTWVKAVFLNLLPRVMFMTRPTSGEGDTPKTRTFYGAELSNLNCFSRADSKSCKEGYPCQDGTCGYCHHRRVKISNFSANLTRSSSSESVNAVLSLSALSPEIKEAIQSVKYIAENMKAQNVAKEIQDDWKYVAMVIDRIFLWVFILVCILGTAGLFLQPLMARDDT
# Neuronal acetylcholine receptor; alpha3/beta4, sequence (P12392 whole entry): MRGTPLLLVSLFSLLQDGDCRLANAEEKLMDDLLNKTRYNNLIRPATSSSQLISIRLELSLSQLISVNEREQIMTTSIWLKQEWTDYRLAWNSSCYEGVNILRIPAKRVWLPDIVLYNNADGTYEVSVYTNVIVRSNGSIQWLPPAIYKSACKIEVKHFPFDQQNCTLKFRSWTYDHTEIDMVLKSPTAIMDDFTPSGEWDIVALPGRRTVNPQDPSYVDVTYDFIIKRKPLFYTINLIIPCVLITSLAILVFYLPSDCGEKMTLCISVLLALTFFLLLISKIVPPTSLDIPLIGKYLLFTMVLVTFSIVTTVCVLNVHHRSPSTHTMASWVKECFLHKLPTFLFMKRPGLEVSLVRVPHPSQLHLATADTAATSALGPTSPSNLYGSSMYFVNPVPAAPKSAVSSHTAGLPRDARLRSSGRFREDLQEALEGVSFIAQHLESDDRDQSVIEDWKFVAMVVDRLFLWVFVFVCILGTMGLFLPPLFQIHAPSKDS
# [4] = molecular target: Neuronal acetylcholine receptor; alpha4/beta2 (Rattus norvegicus, UniProt P09483+P12390); experiment: Displacement of [3H]EB from rat nAChR alpha4beta2 expressed in HEK293 cell membranes by liquid scintillation counting
# Neuronal acetylcholine receptor; alpha4/beta2, sequence (P09483 whole entry): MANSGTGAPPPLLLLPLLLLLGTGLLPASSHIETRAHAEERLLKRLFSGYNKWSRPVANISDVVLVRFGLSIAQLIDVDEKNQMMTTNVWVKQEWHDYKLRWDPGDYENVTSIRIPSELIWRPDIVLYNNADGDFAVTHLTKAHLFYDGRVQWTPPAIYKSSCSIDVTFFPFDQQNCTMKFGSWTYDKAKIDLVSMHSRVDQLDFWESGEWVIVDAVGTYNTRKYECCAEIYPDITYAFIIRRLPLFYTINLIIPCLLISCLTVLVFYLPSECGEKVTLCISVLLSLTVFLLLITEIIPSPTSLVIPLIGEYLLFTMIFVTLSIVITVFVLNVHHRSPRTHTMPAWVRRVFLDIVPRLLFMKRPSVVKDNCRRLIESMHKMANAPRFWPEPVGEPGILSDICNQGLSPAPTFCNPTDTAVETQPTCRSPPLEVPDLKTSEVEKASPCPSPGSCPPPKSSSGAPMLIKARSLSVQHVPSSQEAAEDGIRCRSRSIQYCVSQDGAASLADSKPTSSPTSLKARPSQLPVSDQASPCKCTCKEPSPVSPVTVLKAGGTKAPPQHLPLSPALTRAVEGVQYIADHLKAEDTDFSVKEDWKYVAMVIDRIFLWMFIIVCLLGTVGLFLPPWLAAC
# Neuronal acetylcholine receptor; alpha4/beta2, sequence (P12390 whole entry): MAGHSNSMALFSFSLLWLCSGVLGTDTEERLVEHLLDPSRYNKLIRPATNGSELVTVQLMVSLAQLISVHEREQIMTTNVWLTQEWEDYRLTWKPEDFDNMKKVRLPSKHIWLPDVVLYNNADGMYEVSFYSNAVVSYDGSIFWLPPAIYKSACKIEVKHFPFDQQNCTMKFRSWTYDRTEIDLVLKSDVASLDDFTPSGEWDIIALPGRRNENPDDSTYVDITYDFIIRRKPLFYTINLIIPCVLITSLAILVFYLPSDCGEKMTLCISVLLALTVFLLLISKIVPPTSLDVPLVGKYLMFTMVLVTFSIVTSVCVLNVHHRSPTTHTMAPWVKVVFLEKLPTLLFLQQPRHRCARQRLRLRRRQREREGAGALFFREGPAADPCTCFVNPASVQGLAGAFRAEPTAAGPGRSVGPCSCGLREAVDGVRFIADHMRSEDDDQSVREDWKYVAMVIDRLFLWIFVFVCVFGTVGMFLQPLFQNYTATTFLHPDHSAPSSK
# T1 sequence (Q05941 whole entry): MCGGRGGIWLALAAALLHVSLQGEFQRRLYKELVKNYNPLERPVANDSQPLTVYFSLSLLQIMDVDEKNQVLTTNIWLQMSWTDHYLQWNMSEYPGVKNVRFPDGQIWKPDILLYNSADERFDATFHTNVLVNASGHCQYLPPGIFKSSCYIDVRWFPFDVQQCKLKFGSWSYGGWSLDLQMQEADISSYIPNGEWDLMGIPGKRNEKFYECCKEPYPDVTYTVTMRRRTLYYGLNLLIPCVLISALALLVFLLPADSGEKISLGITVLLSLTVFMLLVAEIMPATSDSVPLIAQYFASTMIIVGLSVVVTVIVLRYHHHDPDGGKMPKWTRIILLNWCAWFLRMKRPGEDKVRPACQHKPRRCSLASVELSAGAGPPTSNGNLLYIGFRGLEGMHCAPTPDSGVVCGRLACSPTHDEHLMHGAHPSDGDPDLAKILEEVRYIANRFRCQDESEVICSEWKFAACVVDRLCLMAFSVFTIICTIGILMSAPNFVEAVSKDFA
Ki [1],EC50 ([2]; read-out: EC50),Ki ([3]; read-out: Ki),Ki ([4]; read-out: Ki),EC50 ([2]; gh4-c1),Ki ([4]; hek293),Ki ([3]; hek293),SMILES
2.3 µM,1.75 µM,> 10 µM,> 10 µM,,,,O=C(CCCCN1CCOCC1)Nc1ccc(-c2ccccc2)cc1
156 µM,,> 100 µM,,Not Active,Not Active,,c1ccc(-c2ccc(-c3nnnn3CCCCN3CCOCC3)cc2)cc1
11 µM,,> 10 µM,> 10 µM,Not Active,,,O=C(NCCCCN1CCOCC1)c1ccc(-c2cccnc2)cc1
1.8 µM,2.37 µM,> 10 µM,> 10 µM,,,,O=C(NCCCCN1CCOCC1)c1ccc(-c2ccccc2)cc1

# More lines, now with the values behind:
SMILES,Ki [1],EC50 ([2]; read-out: EC50),Ki ([3]; read-out: Ki),Ki ([4]; read-out: Ki),EC50 ([2]; gh4-c1),Ki ([4]; hek293),Ki ([3]; hek293)
O=C(CCCCN1CCOCC1)Nc1ccc(-c2cccnc2)cc1,0.67 µM,0.86 µM,> 10 µM,> 10 µM,,,
c1cncc(-c2ccc(-n3nnnc3CCCCN3CCOCC3)cc2)c1,216 µM,,,,Not Active,Not Active,Not Active
c1ccc(-c2ccc(-n3nnnc3CCCCN3CCOCC3)cc2)cc1,236 µM,,> 1000 µM,,Not Active,Not Active,
c1cncc(-c2ccc(-c3nnnn3CCCCN3CCOCC3)cc2)c1,165 µM,,> 1000 µM,,Not Active,Not Active,
